Like-named read-outs stand apart in the source and are kept apart here.
Experiments:
[1] = test system: HepG2 and HEK-293; experiment: Autofluorescence assays, all channels and culture conditions taken together; details: for autofluorescence activity specific to one cell culture: among chemicals active within wavelengths, Fig. 8
Experimental: (§1) Three assay platforms were applied to analyze luciferase and fluorescence interference patterns using the Tox21 chemical screening library. […] The Tox21 chemical library (8,305 unique substances) was screened in triplicate concentration response in all assays, with concurrent cytotoxicity measurements where applicable.
(§2) HepG2 and HEK-293 cells were purchased from American Type Culture Collection (ATCC, Manassas, VA). HepG2 cells were cultured in Eagle’s Minimum Essential Medium (EMEM, ATCC) and HEK-293 cells in Dulbecco’s Modified Eagle’s Medium (DMEM, Life Technologies Corporation, Carlsbad, CA), and both supplemented with 10% Hyclone’s Fetal Bovine Serum (ThermoFisher Scientific, Waltham, MA), and 100 U/ml penicillin-100 µg/ml streptomycin (Life Technologies Corporation). Cells were cultured and maintained at 37 °C under a humidified atmosphere and 5% CO2.
(§3) HepG2 and HEK-293 cells were dispensed at 2,000/well in 5 µL of the culture medium into 1,536-well black/clear plates using a Multidrop™ Combi Reagent dispenser (ThermoFisher Scientific). In parallel, 5 µL/well of culture medium only were dispensed into 1,536-well black/clear plates. […] After respective incubation times, 23 nL of the compounds dissolved in DMSO, positive controls (fluorescein-green, triamterene-blue, and rose bengal-red) were transferred to the assay plates using Pintool station (Wako, San Diego, CA). […] The fluorescence intensity was measured using an Envision plate reader (Perkin Elmer, Waltham, MA) by using excitation/emission filters at 485/535 nm, 405/460 nm, and 540/590 nm for green, blue and red channels respectively. Data were expressed as relative fluorescence units. Each test compound was measured at 5 concentrations ranging from to 29 nM to 92 µM.
(§4) Analysis of compound concentration-response data was performed as previously described. Briefly, raw plate reads for each titration point were first normalized and then corrected by applying a pattern correction algorithm using compound-free control plates (DMSO plates)[22]. […] When normalizing to the positive control, the positive control response was set to 100% and negative control to 0% as follows: Activity(%)=([Vc−VDMSO]/[Vpos−VDMSO])×100, where Vc denotes the compound well values, Vpos denotes the median value of the positive control wells, and VDMSO denotes the median values of the DMSO-only wells. […] The following formula was used to normalize data to the negative control: Activity(%)=([Vc−VDMSO]/[VDMSO])×100 Concentration-response titration points for each compound were fitted to the Hill equation and concentrations of half-maximal activity (AC50) and maximal response (efficacy) values were calculated. Concentration response curves were designated as class 1–4 based on the quality of the fit, the number of points above background, and the response efficacy, as previously described (summarized in Supporting Information Table S1)[18],[20].
Finally, for autofluorescence assays, to avoid indications of generalized cell stress without specific biomolecular interactions, only AC50 below the burst cutoff defined in[23] were considered. Indeed, activity above this limit may result from triggering cell stress pathways, chemical reactivity, physico-chemical disruption of proteins or membranes, or broad low-affinity non-covalent interactions and not from a specific technology interference reaction. […]

[2] = test system: HepG2 and HEK-293; experiment: Autofluorescence assays, green channel, the four conditions taken together; details: for autofluorescence activity: example structures of SOM clusters 209, 173, 117
Experimental: (§5) Three assay platforms were applied to analyze luciferase and fluorescence interference patterns using the Tox21 chemical screening library.
as §2
(§6) HepG2 and HEK-293 cells were dispensed at 2,000/well in 5 µL of the culture medium into 1,536-well black/clear plates using a Multidrop™ Combi Reagent dispenser (ThermoFisher Scientific). In parallel, 5 µL/well of culture medium only were dispensed into 1,536-well black/clear plates. […] After respective incubation times, 23 nL of the compounds dissolved in DMSO, positive controls (fluorescein-green, triamterene-blue, and rose bengal-red) were transferred to the assay plates using Pintool station (Wako, San Diego, CA). […] Data were expressed as relative fluorescence units.
as §4
Finally, for autofluorescence assays, to avoid indications of generalized cell stress without specific biomolecular interactions, only AC50 below the burst cutoff defined in[23] were considered. […]

[3] = test system: HEK-293 cells; experiment: Autofluorescence qHTS, HEK-293 cell based, green channel; details: Homo sapiens; Hek293 cell based, green spectrum; unit inferred
Experimental: as §1
(§7) HepG2 and HEK-293 cells were purchased from American Type Culture Collection (ATCC, Manassas, VA). […]
(§8) HepG2 and HEK-293 cells were dispensed at 2,000/well in 5 µL of the culture medium into 1,536-well black/clear plates using a Multidrop™ Combi Reagent dispenser (ThermoFisher Scientific). […] The fluorescence intensity was measured using an Envision plate reader (Perkin Elmer, Waltham, MA) by using excitation/emission filters at 485/535 nm, 405/460 nm, and 540/590 nm for green, blue and red channels respectively. Data were expressed as relative fluorescence units. Each test compound was measured at 5 concentrations ranging from to 29 nM to 92 µM.
(§9) Analysis of compound concentration-response data was performed as previously described. Briefly, raw plate reads for each titration point were first normalized and then corrected by applying a pattern correction algorithm using compound-free control plates (DMSO plates)[22]. […]

[4] = test system: HepG2 cells; experiment: Autofluorescence qHTS, HepG2 cell based, green channel; details: Homo sapiens, green spectrum, unit inferred
Experimental: as §1, §7, §8, §9

[5] = molecular target: T1, firefly-Luciferase (Photinus pyralis, UniProt P08659); experiment: Luciferase (biochemical) qHTS assay, tox21-luc-biochem-p1, cell-free; details: for AC50: no unit printed in the picture (text uses µM)
T1 construct: purchased Sigma-Aldrich (St. Louis, MO)
T1 sequence (P08659 whole entry): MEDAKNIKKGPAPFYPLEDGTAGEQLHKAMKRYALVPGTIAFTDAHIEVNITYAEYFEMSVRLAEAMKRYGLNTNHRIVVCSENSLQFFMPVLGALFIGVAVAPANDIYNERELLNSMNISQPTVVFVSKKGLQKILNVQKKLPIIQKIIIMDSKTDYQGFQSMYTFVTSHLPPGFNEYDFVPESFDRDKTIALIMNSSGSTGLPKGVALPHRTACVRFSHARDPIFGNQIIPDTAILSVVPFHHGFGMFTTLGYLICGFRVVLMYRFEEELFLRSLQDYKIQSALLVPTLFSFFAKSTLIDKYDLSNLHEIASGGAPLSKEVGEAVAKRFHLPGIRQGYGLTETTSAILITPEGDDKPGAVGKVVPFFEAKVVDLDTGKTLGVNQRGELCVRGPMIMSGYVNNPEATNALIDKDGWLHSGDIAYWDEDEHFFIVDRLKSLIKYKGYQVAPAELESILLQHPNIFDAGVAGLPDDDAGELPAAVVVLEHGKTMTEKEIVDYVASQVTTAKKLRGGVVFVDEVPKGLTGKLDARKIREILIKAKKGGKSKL
Text: as §1
The substrate D-Luciferin and the enzyme firefly-Luciferase were purchased from Sigma-Aldrich (St. Louis, MO). The positive control compound (PTC-124) was purchased from Santa Cruz Biotechnology, Inc. (Dallas, TX).
Three µL of the substrate (mixture containing 50 mM Tris-acetate pH 7.6, 13.3 mM magnesium acetate, 0.01 mM D-luciferin, 0.01 mM ATP, 0.01% Tween, 0.05% BSA and distilled H2O) was dispensed into medium-binding white/solid 1,536-well plates (Greiner Bio-One North America Inc., Monroe, NC) using a Flying Reagent Dispenser, FRD (Aurora Discovery, Carlsbad, CA). Then 23 nL of the test compounds (into 5–48 columns), PTC-124 and/or DMSO (into 1–4 columns) were transferred to the assay plates using a Pintool station (Wako, San Diego, CA). The positive control plate format is, column-1: sixteen-concentration two-fold titration of PTC-124 from 0.035 nM to 1.15 µM with duplicate points; columns-2 & 3 for the top half portions: 0.58 and 1.15 µM PTC-124 respectively and DMSO in the rest. Compound addition was followed by the addition of 1 μl of 10 nM enzyme (mixture containing 50 mM Tris-acetate, 0.04 µM firefly-Luciferase and distilled H2O) by using an FRD to all the wells of assay plate except in the 4th column which received the buffer instead. After 5 min incubation at room temperate, luminescence intensity was measured by a Viewlux plate reader (Perkin Elmer, Waltham, MA). Data were expressed as relative luminescence units. Each test compound was measured at 15 concentrations ranging from 1.5 nM to 115 µM and in triplicate.
For primary data analysis, raw plate reads for each titration point were first normalized relative to DMSO-only wells that received firefly-Luciferase (basal, 0%) and PTC-124 control wells that received firefly-Luciferase (0.58 µM, −100%) and then corrected by applying a pattern correction algorithm using compound-free control plates (DMSO plates). Concentration-response titration points for each compound replicate were fitted to the Hill equation and concentrations of half-maximal inhibition activity (IC50) and maximal response (efficacy) values were calculated; the mean of the IC50s was used as the representative value. Concentration response curves were designated as class 1–4 based on the quality of the fit, the number of points above background, and the response efficacy, as previously described (summarized in Supporting Information Table S1)[18],[20].
(§10) Finally, for autofluorescence assays, to avoid indications of generalized cell stress without specific biomolecular interactions, only AC50 below the burst cutoff defined in[23] were considered. Indeed, activity above this limit may result from triggering cell stress pathways, chemical reactivity, physico-chemical disruption of proteins or membranes, or broad low-affinity non-covalent interactions and not from a specific technology interference reaction. This filter was applied to distinguish chemical-structure driven autofluorescence from the increase in signal that has been observed due to cell stress. The distribution of the curve classes for active chemicals is presented in Supporting Information Fig. S1.

[6] = test system: HepG2 and HEK-293; experiment: Autofluorescence assays, blue channel, the four conditions taken together (HepG2/HEK-293, cell-based/cell-free); details: for autofluorescence activity specific to culture condition: Fig. 8A
Experimental: as §5, §2, §6, §4
as §10, with “stress.” for “stress. The distribution of the curve classes for active chemicals is presented in Supporting Information Fig. S1.”

[7] = test system: HepG2 and HEK-293; experiment: Autofluorescence assays, red channel, the four conditions taken together
Experimental: as §1, §2, §3
as §4, with “Concentration response curves were designated as class 1–4 based on the quality of the fit, the number of points above background, and the response efficacy, as previously described (summarized in Supporting Information Table S1)[18],[20].” left out

[8] = all four assay conditions, read-out: AC50s

Compound: CCCNC(=O)NS(=O)(=O)c1ccc(Cl)cc1 [Chemical 49]
- autofluorescence activity specific to one cell culture [1]: active only on HEK-293

Compound: O=C1OC2(c3ccc(O)cc3Oc3cc(O)ccc32)c2ccccc21 [fluorescein]
- curve class ([2]; all four assay conditions): 1.1
- EC50 [2, 8]: < 4 µM
- AC50 [3]: 2820 nM
- AC50 [4]: 3.16 µM

Compound: Nc1ccc(N)cc1 [Chemical 77]
- autofluorescence activity specific to one cell culture [1]: active only on HEK-293

Compound: CN(C)N=Nc1nc[nH]c1C(N)=O [Chemical 63]
- autofluorescence activity specific to one cell culture [1]: active specifically on the HepG2 culture

Compound: [O-][n+]1ccccc1S [13463-41-7]
- IC50 ([5]; after filtering, no unit printed in the sheet, read-out: Luc_IC50): 481 nM

Compound: O=C(O)c1cccc(-c2noc(-c3ccccc3F)n2)c1 [PTC-124, Ataluren]
- response curve class [5]: −1.1
- IC50 ([5]; estimated, based on triplicate measurements, read-out: IC50): < 20 nM
- AC50 ([5]; set1): 0.00871 µM
- AC50 ([5]; set2): 0.0195 µM
- AC50 ([5]; set3): 0.0195 µM

Compound: Nc1ccc(N)c2ccccc12 [Chemical 79]
- autofluorescence activity specific to one cell culture [1]: active specifically on the HepG2 culture

Compound: CC(CO)NC(=O)C1C=C2c3cccc4[nH]cc(c34)CC2N(C)C1 (centres unmarked) [Chemical 36]
- autofluorescence activity [2]: actives

Compound: triamterene [Tiramterene]
- response curve class ([6]; all four assay conditions): 2.1
- EC50 [6, 8]: < 40 µM
- efficacy ([6]; incomplete response): > 80%

Compound: O=C1CCCO1 [Chemical 32]
- autofluorescence activity [2]: Active
- autofluorescence activity ([1]; green and red channel, SOM cluster 209): autofluorescent in both the green and red channel

Compound: rose bengal
- response curve class ([7]; all four assay conditions): 2.1
- EC50 [7, 8]: < 12 µM
- efficacy ([7]; incomplete response): > 80%

Compound: O=C1CCCCC1 [Chemical 59]
- autofluorescence activity specific to culture condition [6]: active only in the HEK-293 cell-free condition

Compound: O=C(O)CCCc1ccc(N(CCCl)CCCl)cc1 [Chemical 44]
- autofluorescence activity ([7]; example structures of SOM clusters 194 (219 in Fig. 6) and 143): actives

Compound: OC[C@H]1O[C@@H]2O[C@H]3[C@H](O)[C@@H](O)[C@@H](O[C@H]4[C@H](O)[C@@H](O)[C@@H](O[C@H]5[C@H](O)[C@@H](O)[C@@H](O[C@H]6[C@H](O)[C@@H](O)[C@@H](O[C@H]7[C@H](O)[C@@H](O)[C@@H](O[C@H]8[C@H](O)[C@@H](O)[C@@H](O[C@H]1[C@H](O)[C@H]2O)O[C@@H]8CO)O[C@@H]7CO)O[C@@H]6CO)O[C@@H]5CO)O[C@@H]4CO)O[C@@H]3CO [Chemical 58]
- autofluorescence activity specific to culture condition [6]: active only in the HEK-293 cell-free condition
